Test results taken from patent US20240067639A1, “SMALL MOLECULES THAT TARGET THE RNA THAT CAUSES ALS” (EXPANSION THERAPEUTICS, INC., priority 2020, published 2024).
Like-named read-outs stand apart in the source and are kept apart here.

Key:
[1] = system: RAN translation of (G4C2)66-No ATG-GFP in HEK293T cells; experiment: Cell-based assay of RAN translation inhibition (GFP/mCherry reporter); settings: Homo sapiens, HEK-293T; for IC50: Table G, read-out: RANT IC50; for IC25: 24 h, read-out: RANT IC25
[2] = biological target: Biotin-labeled RNA (target RNA); experiment: BLI affinity measurement (ForteBio Octet RED384); type: binding; settings: Table G
[3] = biological target: biotinylated r(G4C2)8 RNA and hnRNP H1-His6; experiment: TR-FRET hnRNP H binding assay; settings: Table D
Summary of the method: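 Biotinylated r(G4C2)8 RNA (80 nM), heat-folded at 95 °C then slowly cooled, was preincubated 15 min with compound before hnRNP H1-His6 (75 nM) was added. After 15 min, streptavidin-XL665 (40 nM) and anti-His6-Tb (0.44 ng/μL) were added and TR-FRET was read after 1 h. IC50 was obtained by curve fitting.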

[4] = Table D, HEK293T, 24 h treatment

Row | SMILES | Kd [2] | Ki [3] | IC50 ([1]; HEK293T) | IC25 [1, 4] | IC25 [1]
1 | c1cc2cc3[nH]c4ccc(OCC5=NCCN5)cc4c3cc2cn1 [Compound 262, 9-((4,5-dihydro-1H-imidazol-2-yl)methoxy)-6H-pyrido[4,3-b]carbazole] | 5.2 µM |  | 6.6 µM |  | 
2 | Cc1c2ccncc2cc2c1[nH]c1ccc(OCCN)cc12 [Compound 263, 2-[(5-methyl-6H-pyrido[4,3-b]carbazol-9-yl)oxy]ethanamine] | 0.61 µM |  | > 100 µM |  | 
3 | Cc1c2ccncc2cc2c3c(OCCN4CCOCC4)cccc3n(C)c12 [Example 54, 4-(2-((5,6-dimethyl-6H-pyrido[4,3-b]carbazol-10-yl)oxy)ethyl)morpholine] |  | 13 µM |  | 1.3 µM | 
4 | Cc1c2ccncc2cc2c3c(OCCN(C)C)cccc3n(C)c12 [Example 55, 2-((5,6-dimethyl-6H-pyrido[4,3-b]carbazol-10-yl)oxy)-N,N-dimethylethanamine] |  | 1.5 µM |  |  | 0.92 µM
5 | Cc1c2ccncc2cc2c3c(OCC4=NCCN4)cccc3n(C)c12 [Example 56, 10-((4,5-dihydro-1H-imidazol-2-yl)methoxy)-5,6-dimethyl-6H-pyrido[4,3-b]carbazole] |  | 1 µM |  | 0.67 µM | 
6 | Cc1c2ccncc2cc2c3cc(OCC(=O)N4CCN(C)CC4)ccc3n(C)c12 [Example 60, 2-((5,6-dimethyl-6H-pyrido[4,3-b]carbazol-9-yl)oxy)-1-(4-methylpiperazin-1-yl)ethanone] |  | 3.8 µM |  | > 5 µM | 
7 | CCn1c2ccc(OCCN3CCOCC3)cc2c2cc3cnccc3c(C)c21 [Example 62, 4-[2-(6-ethyl-5-methyl-pyrido[4,3-b]carbazol-9-yl)oxyethyl]morpholine] |  | > 200 µM |  | > 5 µM | 
8 | Cc1c2ccncc2cc2c3cccc(OCCN4CCOCC4)c3n(C)c12 [Example 64, 4-(2-((5,6-dimethyl-6H-pyrido[4,3-b]carbazol-7-yl)oxy)ethyl) morpholine] |  | > 200 µM |  | > 5 µM | 
9 | Cc1c2ccncc2cc2c3cc(C(=O)NCCN(C)C)ccc3n(C)c12 [Example 68, N-(2-(dimethylamino)ethyl)-5,6-dimethyl-6H-pyrido[4,3-b]carbazole-9-carboxamide] |  | 4 µM |  | 0.72 µM | 
10 | CNCCNC(=O)c1ccc2c(c1)c1cc3cnccc3c(C)c1n2C [Example 73, 5,6-dimethyl-N-(2-(methylamino)ethyl)-6H-pyrido[4,3-b]carbazole-9-carboxamide] |  | 13 µM |  | 0.84 µM | 
11 | Cc1c2ccncc2cc2c3cc(C(=O)NCCC4CCN(C)CC4)ccc3n(C)c12 [Example 75, 5,6-dimethyl-N-(2-(1-methylpiperidin-4-yl)ethyl)-6H-pyrido[4,3-b]carbazole-9-carboxamide] |  | 29 µM |  | 1.4 µM | 
12 | Cc1c2ccncc2cc2c3cc(C(=O)NCCN4CCCCC4)ccc3n(C)c12 [Example 77, 5,6-dimethyl-N-(2-(piperidin-1-yl)ethyl)-6H-pyrido[4,3-b]carbazole-9-carboxamide] |  | 1.2 µM |  | 1.7 µM | 
13 | Cc1c2ccncc2cc2c3cc(C(=O)NCCO)ccc3n(C)c12 [Example 78, N-(2-hydroxyethyl)-5,6-dimethyl-6H-pyrido[4,3-b]carbazole-9-carboxamide] |  | 3.6 µM |  | 1.6 µM | 
14 | CCc1nccc2c(C)c3c(cc12)c1cc(OC)ccc1n3C [Example 80a, 1-ethyl-9-methoxy-5,6-dimethyl-6H-pyrido[4,3-b]carbazole] |  | 30 µM |  | > 5 µM | 
15 | COc1ccc2c(c1)c1cc3c(C4CCCO4)nccc3c(C)c1n2C (stereo not drawn) [Example 80b, 9-methoxy-5,6-dimethyl-1-(tetrahydrofuran-2-yl)-6H-pyrido[4,3-b]carbazole] |  | 9.2 µM |  | 3.1 µM | 
16 | COc1ccc2c3cc4c(C(=O)N[C@H](C)CN(C)C)nccc4c(C)c3n(C)c2c1 [Example 82, (R)—N-(1-(dimethylamino)propan-2-yl)-8-methoxy-5,6-dimethyl-6H-pyrido[4,3-b]carbazole-1-carboxamide] |  | 20 µM |  | > 5 µM | 

Further lines, with some results ahead:

Row | Kd [2] | Ki [3] | SMILES | IC50 ([1]; HEK293T) | IC25 [1, 4] | IC25 [1]
17 |  | 0.6 µM | Cc1c2ccncc2cc2c3cc(OCC4=NCCN4C)ccc3n(C)c12 [Example 41, 5,6-dimethyl-9-((1-methyl-4,5-dihydro-1H-imidazol-2-yl)methoxy)-6H-pyrido[4,3-b]carbazole] |  | 0.67 µM | 
18 |  | 9.2 µM | Cc1c2ccncc2cc2c3cc(OCC(=O)NCCN4CCOCC4)ccc3n(C)c12 [Example 42, 2-((5,6-dimethyl-6H-pyrido[4,3-b]carbazol-9-yl)oxy)-N-(2-morpholinoethyl)acetamide] |  | > 5 µM | 
19 |  | 33 µM | COc1ccc2c(c1)c1cc3ccncc3c(C)c1n2C [Example 50, 7-methoxy-10,11-dimethyl-10H-pyrido[3,4-b]carbazole] |  | 0.27 µM | 
20 |  | 6 µM | Cc1c2ccncc2cc2c3ccc(OCCN(C)C)cc3n(C)c12 [Example 51, 2-((5,6-dimethyl-6H-pyrido[4,3-b]carbazol-8-yl)oxy)-N,N-dimethylethanamine] |  | > 5 µM | 
21 |  | 5.6 µM | Cc1c2ccncc2cc2c3ccc(OCC4=NCCN4)cc3n(C)c12 [Example 52, 8-((4,5-dihydro-1H-imidazol-2-yl)methoxy)-5,6-dimethyl-6H-pyrido[4,3-b]carbazole] |  | 3.1 µM | 
22 |  | 5.2 µM | Cc1c2ccncc2cc2c3cc(OCC(=O)N(C)C)ccc3n(C)c12 [Example 57, 2-((5,6-dimethyl-6H-pyrido[4,3-b]carbazol-9-yl)oxy)-N,N-dimethylacetamide] |  | 4 µM | 
23 |  | 0.9 µM | Cc1c2ccncc2cc2c3cc(OC[C@@H](C)N)ccc3n(C)c12 [Example 61, (R)-1-((5,6-dimethyl-6H-pyrido[4,3-b]carbazol-9-yl)oxy)propan-2-amine] |  | 1 µM | 
24 |  | 1.8 µM | CCn1c2ccc(OCC3=NCCN3)cc2c2cc3cnccc3c(C)c21 [Example 63, 9-((4,5-dihydro-1H-imidazol-2-yl)methoxy)-6-ethyl-5-methyl-6H-pyrido[4,3-b]carbazole] |  | 4.8 µM | 
25 |  | 12 µM | Cc1c2ccncc2cc2c3cc(C(N)=O)ccc3n(C)c12 [Example 69, 5,6-dimethyl-6H-pyrido[4,3-b]carbazole-9-carboxamide] |  | 1.6 µM | 
26 |  | 36 µM | CNC(=O)c1ccc2c(c1)c1cc3cnccc3c(C)c1n2C [Example 70, N,5,6-trimethyl-6H-pyrido[4,3-b]carbazole-9-carboxamide] |  | 3.6 µM | 
27 |  | 107 µM | Cc1c2ccncc2cc2c3cc(C(=O)N(C)C)ccc3n(C)c12 [Example 71, N,N,5,6-tetramethyl-6H-pyrido[4,3-b]carbazole-9-carboxamide] |  | > 5 µM | 
28 |  | 4.2 µM | Cc1c2ccncc2cc2c3cc(C(=O)N4CCN(C)CC4)ccc3n(C)c12 [Example 76, (5,6-dimethyl-6H-pyrido[4,3-b]carbazol-9-yl)(4-methylpiperazin-1-yl)methanone] |  | 2.2 µM | 
29 |  | 2.3 µM | Cc1c2cnccc2cc2c3cc(OCC4=NCCN4)ccc3n(C)c12 [Example 83, 7-(4,5-dihydro-1H-imidazol-2-ylmethoxy)-10,11-dimethyl-pyrido[3,4-b]carbazole] |  | 1.1 µM | 
30 |  | 13 µM | Cc1c2ccncc2cc2c3cc(OCC4=NCCN4)ccc3n(C(C)C)c12 [Example 84, 9-(4,5-dihydro-1H-imidazol-2-ylmethoxy)-6-isopropyl-5-methyl-pyrido[4,3-b]carbazole] |  | > 5 µM | 
